The nature of data set [1]: Cytotoxicity against human KKU-M213 cells assessed as growth inhibition after 72 hrs by sulforhodamine B assay. The following applies: KKU-M213, 72 h. Background: Sulforhodamine B stains cellular protein and so reports cell mass.
Another data set deals with KKU-M156. The data set is described as follows: Cytotoxicity against human KKU-M156 cells assessed as growth inhibition at > 200 uM after 72 hrs by sulforhodamine B assay.
The test system of a further data set is KKU-M139. The data set is described as follows: Cytotoxicity against human KKU-M139 cells assessed as growth inhibition at > 200 uM after 72 hrs by sulforhodamine B assay.
Data set [2] concerns Vero. As to the kind of experiment: Cytotoxicity against african green monkey Vero cells assessed as growth inhibition at > 200 uM after 72 hrs by sulforhodamine B assay. Particulars: Chlorocebus sabaeus.
Data set [3] is described as follows: Cytotoxicity against human KKU-M156 cells assessed as growth inhibition after 72 hrs by sulforhodamine B assay. The following applies: KKU-M156, 72 h.
Data set [4] in a line: Cytotoxicity against human KKU-M139 cells assessed as growth inhibition after 72 hrs by sulforhodamine B assay. Particulars: KKU-M139, 72 h.
The subject of data set [5] is Vero. The data set is described as follows: Cytotoxicity against african green monkey Vero cells assessed as growth inhibition after 72 hrs by sulforhodamine B assay. The following applies: Chlorocebus sabaeus.
A further data set deals with KKU-M213. The data set is described as follows: Cytotoxicity against human KKU-M213 cells assessed as growth inhibition at > 200 uM after 72 hrs by sulforhodamine B assay.

Calls of active or inactive are those of the source. The rule behind the calls is not given here.

Drawing on ChEMBL document CHEMBL3352676, “Terpenoids from the root bark of Pterolobium macropterum” (J Nat Prod, 2014), this text covers IC50, inhibition and Activity for 14 compounds.

For orientation: IC50 means the concentration at which inhibition is half-maximal. As to `CC1=C2CC3CC[C@@H](C)C2(CC1=O)C3(C)C` (stereo partly specified), the IC50 in data set [1] is 138 µM. Moreover, the inhibition entry in the data set with KKU-M156 and in the data set with KKU-M139 was “inactive” in each case. The Activity entry with Vero [2] is listed as “Non-toxic”.

With `COC(=O)[C@]1(C)CCC[C@]2(C)c3cc4occc4c(C)c3CC[C@@H]12`, the IC50 is 80.1 µM in data set [3], 144 µM in data set [1], 70.6 µM in data set [4] and 57.6 µM with Vero [5].

`CC(C)[C@@H]1CC[C@@H](C)[C@@H]2CCC(C=O)=C[C@@]12O`: in data set [1], the IC50 was determined as 88.8 µM. For the same compound, the inhibition entry in the data set on KKU-M156 and with KKU-M139 was “inactive” throughout. Moreover, the Activity result in the data set on Vero [2] is reported as “Non-toxic”.

With `COC(=O)[C@]1(C)CCC[C@@]2(C)[C@H]1CC[C@H]1[C@@H](C)C3=CC(=O)O[C@]3(O)C[C@@H]12`, the IC50 in data set [3] stood at 61.2 µM; in data set [1], 44 µM; in data set [4], 76.3 µM; with Vero [5] it was 59.2 µM.

For `COC(=O)C1(C(=O)OC)CCC[C@]2(C)c3cc4occc4c(C)c3CC[C@@H]12`, the IC50 in data set [3] stood at 83.6 µM; in data set [1], 44.2 µM; in data set [4], 80.2 µM; in the data set on Vero [5] it was 65.7 µM.

Consider `CC(C)[C@]1(O)CC[C@@H](C)[C@@H]2CCC(=O)C=C21`, for which the values for the IC50 (in data set [3]; in data set [4]; with Vero [5]) were 139 µM, 148 µM and 154 µM, respectively. Further, the inhibition entry with KKU-M213 is “inactive”.

In the case of `COC(=O)[C@]1(C)CCC[C@@]2(C)[C@H]1CC[C@H]1[C@@H](C)C3=CC(=O)OC3=C[C@@H]12`, the IC50 in data set [1] was determined as 47.6 µM; with Vero [5], 94.4 µM. In addition, the inhibition entry in the data set on KKU-M156 and in the data set with KKU-M139 was “inactive” throughout.

As to `COC(=O)[C@]1(C)CCC[C@@]2(C)[C@H]1CC[C@H]1C(=O)c3ccoc3C[C@@H]12`, the IC50 stood at 148 µM in data set [3], 34.8 µM in data set [1] and 23.2 µM in data set [4]. Besides, in the data set with Vero [2], the Activity result was “Non-toxic”.

For `C[C@H]1C2=CC(=O)O[C@]2(O)C[C@H]2[C@H]1CC[C@@H]1[C@]2(C)CCC[C@@]1(C)C(=O)O` [DIPTERYXIC ACID], the IC50 was 82.9 µM in data set [3], 68.9 µM in data set [1], 77.3 µM in data set [4] and 97.1 µM in the data set with Vero [5].

On to `COC(=O)[C@]1(C)CC[C@@H](OC(C)=O)[C@]2(C)c3cc4occc4c(C)c3C[C@@H](O)[C@H]21`, for which the concentration for half-maximal inhibition (IC50) in data set [3] is 115 µM; in data set [1] it was 98.2 µM; in data set [4], 155 µM. Moreover, in the data set on Vero [2], the Activity result is on record as “Non-toxic”.

In the case of `COC(=O)[C@]1(C)CCC[C@]2(C)c3cc4occc4c(C)c3C[C@@H](O)[C@@H]12`, the IC50 in data set [3] was 113 µM; in data set [1], 105 µM; in data set [4], 122 µM. For the same compound, in the data set on Vero [2], the Activity entry was “Non-toxic”.

On to `CC(C)[C@@H]1CC[C@@H](C)[C@@H]2CCC(=O)C=C12`, for which the IC50 in data set [3] is 88.8 µM; in data set [1] it was 87.3 µM; in data set [4], 70.8 µM; in the data set on Vero [5] it was 154 µM.

For the compound `Cc1c2ccncc2c(C)c2c1[nH]c1ccccc12` [ELLIPTECINE], the IC50 worked out at 37.9 µM in data set [3], 6.58 µM in data set [1], 18.3 µM in data set [4] and 15.5 µM in the data set on Vero [5].

Take `COC(=O)[C@]1(C)CCC[C@@]2(C)[C@H]1CC[C@H]1C(C)=CC(=O)C[C@@H]12`: the IC50 in data set [1] was 66.8 µM; in data set [4] it was 197 µM; in the data set with Vero [5], 50.5 µM. Moreover, the inhibition entry with KKU-M156 is “inactive”.
